Laboratory results published in US8445481B2, “Scaffold-diversified pyrrolidinone derivatives and their use” (The University of Chicago, priority 2007, dated 2013).

Legend:
hACC2 = molecular target: T1, hACC2 (Homo sapiens, UniProt O00763); settings: reference ACC inhibitor; cited from earlier work
T1 construct: expressed in transfected cells; host or cells: Saccharomyces cerevisiae

cells = experiment: Cell cycle arrest; assay type: cell-based
CHO-K1 cells = experiment: Cell proliferation, CHO-K1; assay type: cell-based
Procedure: (§1) Since respiration and glycolysis are tightly coupled in eukaryotic cells, a combination of suppressors of respiration with inhibitors of glycolysis were tested for cytotoxic phenotype.

U-87MG glioma cells = experiment: Combination of respiration suppressor and glycolysis inhibitor, cytotoxicity; assay type: cell-based; settings: in combination with leucascandrolide A
Procedure: as §1

glycolysis = experiment: Lactate production in cell culture medium; assay type: cell-based
Procedure: (§2) A high-throughput assay was developed for identification of new inhibitors of glycolysis. The effect of the pyrrolidinone library on intracellular ATP level of A549 cells was tested in either the presence or absence of antimycin A (inhibitor of mitochondrial electron-transport chain). […] Initial hits were further verified by evaluating their effects on lactate production. Since lactate is a toxic end-product of glycolysis effluxed to the intercellular space, treatment of cells with glycolytic inhibitors should lead to decreased levels of lactate in cell culture medium.

A549 cells [1] = experiment: Intracellular ATP level of A549 cells with or without antimycin A; assay type: cell-based; settings: presence versus absence of antimycin A (10 nM)
Procedure: as §2

A549 cells [2] = experiment: Cancer cell proliferation, A549; assay type: cell-based
Procedure: as §1

[3] = tested on: cellular glucose consumption; experiment: Cellular glucose consumption; assay type: cell-based
caspase-3/7 = experiment: Time-dependence of caspase-3/7 activation; assay type: cell-based; settings: HL-60 cells, time after treatment
tumor cells = experiment: Sensitisation of tumor cells to 2-deoxyglucose; assay type: cell-based
Procedure: as §1

T1 sequence (O00763 whole entry): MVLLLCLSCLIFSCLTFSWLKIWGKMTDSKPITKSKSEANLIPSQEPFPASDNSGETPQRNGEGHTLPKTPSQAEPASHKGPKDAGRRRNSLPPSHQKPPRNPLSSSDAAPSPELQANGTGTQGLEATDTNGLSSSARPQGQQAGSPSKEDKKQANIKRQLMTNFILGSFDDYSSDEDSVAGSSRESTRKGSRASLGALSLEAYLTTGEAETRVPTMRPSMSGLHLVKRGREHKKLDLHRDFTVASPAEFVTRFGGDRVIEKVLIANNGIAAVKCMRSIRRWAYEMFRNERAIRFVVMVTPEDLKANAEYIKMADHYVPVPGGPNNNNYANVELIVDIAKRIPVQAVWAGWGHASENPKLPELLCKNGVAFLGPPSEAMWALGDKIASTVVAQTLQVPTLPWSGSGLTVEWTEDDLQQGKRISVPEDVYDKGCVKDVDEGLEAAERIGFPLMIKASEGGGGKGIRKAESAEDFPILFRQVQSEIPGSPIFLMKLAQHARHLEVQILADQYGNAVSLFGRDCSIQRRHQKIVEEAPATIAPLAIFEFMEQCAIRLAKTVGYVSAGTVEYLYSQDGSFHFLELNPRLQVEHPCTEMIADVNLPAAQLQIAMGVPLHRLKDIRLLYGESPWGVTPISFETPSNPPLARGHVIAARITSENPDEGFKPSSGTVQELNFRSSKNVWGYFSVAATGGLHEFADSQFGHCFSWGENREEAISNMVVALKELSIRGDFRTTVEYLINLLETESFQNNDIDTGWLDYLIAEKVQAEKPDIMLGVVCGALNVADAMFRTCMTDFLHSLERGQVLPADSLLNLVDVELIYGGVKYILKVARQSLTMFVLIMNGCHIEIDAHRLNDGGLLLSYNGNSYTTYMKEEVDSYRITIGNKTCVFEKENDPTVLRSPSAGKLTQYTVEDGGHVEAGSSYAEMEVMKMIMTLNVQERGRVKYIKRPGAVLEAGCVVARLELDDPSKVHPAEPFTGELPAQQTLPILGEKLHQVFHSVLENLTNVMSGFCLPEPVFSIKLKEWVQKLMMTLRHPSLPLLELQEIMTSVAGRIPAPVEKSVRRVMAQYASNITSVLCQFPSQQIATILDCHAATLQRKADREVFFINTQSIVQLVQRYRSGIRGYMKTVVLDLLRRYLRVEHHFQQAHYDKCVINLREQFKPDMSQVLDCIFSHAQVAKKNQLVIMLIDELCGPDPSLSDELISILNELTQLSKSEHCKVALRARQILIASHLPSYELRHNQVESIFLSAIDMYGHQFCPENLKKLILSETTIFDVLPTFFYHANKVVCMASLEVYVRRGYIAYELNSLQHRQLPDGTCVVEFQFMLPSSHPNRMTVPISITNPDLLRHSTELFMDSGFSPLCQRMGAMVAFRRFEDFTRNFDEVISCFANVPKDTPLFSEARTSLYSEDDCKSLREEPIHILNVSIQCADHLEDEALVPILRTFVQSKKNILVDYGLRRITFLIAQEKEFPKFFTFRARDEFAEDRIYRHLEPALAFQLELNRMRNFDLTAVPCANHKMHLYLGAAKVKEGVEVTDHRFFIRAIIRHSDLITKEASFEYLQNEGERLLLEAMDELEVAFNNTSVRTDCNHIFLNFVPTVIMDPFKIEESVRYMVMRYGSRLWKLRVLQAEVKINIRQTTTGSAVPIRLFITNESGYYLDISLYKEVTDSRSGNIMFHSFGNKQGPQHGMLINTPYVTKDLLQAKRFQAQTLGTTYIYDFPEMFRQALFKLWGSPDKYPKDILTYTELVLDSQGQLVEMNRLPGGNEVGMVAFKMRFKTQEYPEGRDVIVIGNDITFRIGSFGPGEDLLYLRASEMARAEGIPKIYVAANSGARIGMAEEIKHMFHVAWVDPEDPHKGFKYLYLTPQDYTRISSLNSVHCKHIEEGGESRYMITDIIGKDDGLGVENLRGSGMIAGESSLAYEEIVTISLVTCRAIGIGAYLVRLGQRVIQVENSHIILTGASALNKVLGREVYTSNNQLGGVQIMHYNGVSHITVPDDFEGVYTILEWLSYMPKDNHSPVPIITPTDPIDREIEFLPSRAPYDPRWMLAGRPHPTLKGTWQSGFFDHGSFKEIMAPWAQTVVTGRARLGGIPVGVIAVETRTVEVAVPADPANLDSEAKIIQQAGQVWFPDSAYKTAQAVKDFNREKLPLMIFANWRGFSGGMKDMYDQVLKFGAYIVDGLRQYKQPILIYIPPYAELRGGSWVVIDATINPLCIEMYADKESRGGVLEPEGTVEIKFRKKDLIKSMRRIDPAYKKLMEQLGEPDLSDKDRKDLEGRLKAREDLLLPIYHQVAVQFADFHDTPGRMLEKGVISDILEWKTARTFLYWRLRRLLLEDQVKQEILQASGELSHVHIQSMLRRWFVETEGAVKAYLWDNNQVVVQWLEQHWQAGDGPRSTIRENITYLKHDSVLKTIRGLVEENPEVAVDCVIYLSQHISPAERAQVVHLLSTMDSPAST

| Compound | cell cycle arrest (cells) | effect on cell proliferation (CHO-K1 cells) | lactate production (glycolysis) | suppression of ATP production (A549 cells [1]) | effect on cancer cell proliferation (A549 cells [2]) | other results |
| --- | --- | --- | --- | --- | --- | --- |
| CC(C#Cc1cnc(Oc2ccc(Oc3ccccc3)cc2)s1)N(O)C(N)=O (stereo not shown) [Example A-80040] | – | – | – | – | – | ACC2 specificity (hACC2): certain level of ACC2 specificity |
| COC(=O)[C@@]12CCCCC=C1N(CCC1=CCCCC1)C(=O)[C@H]2CC(=O)NCc1ccc(OC)c(OC)c1 [Example P8A7] | arrested cells in G1 phase | cytostatic effect | inhibited lactate production | suppressed ATP production more efficiently in the presence of antimycin A | cytostatic effect | cell death on combined treatment (U-87MG glioma cells): severe cell death |
| COC(=O)[C@@]12CCCCC/C=C\1N(Cc1cccc3ccccc13)C(=O)[C@H]2CC(=O)N1CCN(C(=O)c2ccco2)CC1 [Example P9E11] | arrested cells in G1 phase | cytostatic effect | inhibited lactate production | suppressed ATP production more efficiently in the presence of antimycin A | cytostatic effect | cellular glucose consumption [3]: rapidly inhibited cellular glucose consumption; activity profile compared with cytochalasin B ([3]; cytochalasin B is an established inhibitor of glucose transport): essentially identical activity profile to cytochalasin B |
| CN[C@@H]1C[C@H]2O[C@@](C)([C@@H]1OC)n1c3ccccc3c3c4c(c5c6ccccc6n2c5c31)C(=O)NC4 [staurosporine] | – | – | – | – | – | caspase-3/7 activation over time (caspase-3/7): increased activity between 3 and 6 hours after treatment, after which activity decreased |
| rhodamine 123 | – | – | – | – | – | sensitisation of tumor cells to 2-deoxyglucose (tumor cells): hypersensitized tumor cells to treatment with 2-deoxyglucose |
